We go through 18 molecules from US8748417B2, “Amino-pyrrolidine-azetidine diamides as monoacylglycerol lipase inhibitors” (Janssen Pharmaceutica, NV, priority 2010, dated 2014).

Common to all, as to type: biochemical
In test [1] the target is T1, purified wild type MGL (wt-MGLL 6H-11-313) (Homo sapiens, UniProt Q99685).
T1 construct: purified wild type MGL (wt-MGLL 6H-11-313)
T1 sequence (Q99685 1-303): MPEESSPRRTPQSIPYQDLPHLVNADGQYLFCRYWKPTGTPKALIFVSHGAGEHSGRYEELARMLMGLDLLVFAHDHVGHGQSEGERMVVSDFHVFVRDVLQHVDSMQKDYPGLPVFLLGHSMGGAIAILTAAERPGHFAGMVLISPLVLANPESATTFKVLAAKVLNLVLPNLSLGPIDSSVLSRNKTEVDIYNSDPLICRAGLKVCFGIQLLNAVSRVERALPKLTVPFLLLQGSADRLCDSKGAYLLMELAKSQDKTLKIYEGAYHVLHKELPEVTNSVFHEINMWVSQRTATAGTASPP
Briefly: MGL enzyme activity assay (4MU-B cleavage), wild type MGL. Conditions: wild type MGL 5 nM, 4MU-B 10 μM, 37° C.; read-out: MGL wild type inh IC50. A digest of the protocol:
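Enzyme in 20 mM PIPES pH 7.0, 150 mM NaCl, 0.001% Tween 20 with 4MU-B at 10 μM final and MGL at 5 nM final; compounds 17 to 0.0003 μM final, enzyme added last. Fluorescence (ex 335/em 440 nm) followed at 37° C for 5 min; IC50 from fit of fractional activity versus inhibitor concentration.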

The target in test [2] is T2, purified mutant MGL (mut-MGLL 11-313 L179S L186S) (Homo sapiens, UniProt Q99685, L169S/L176S).
T2 construct: purified mutant MGL (mut-MGLL 11-313 L179S L186S)
T2 sequence (Q99685 1-303 L169S/L176S): T1 sequence (Q99685 1-303) with L169S, L176S
Briefly: MGL enzyme activity assay (4MU-B cleavage), mutant MGL. Conditions: mutant MGL 5 nM, 4MU-B 10 μM, 37° C.; read-out: MGL mutant inh IC50. As for the experimental part: All rate-based assays were performed in black 384-well polypropylene PCR microplates (Abgene) in a total volume of 30 μL. Substrate 4-methylumbelliferyl butyrate (4MU-B; Sigma) and either purified mutant MGL (mut-MGLL 11-313 L179S L186S) or purified wild type MGL (wt-MGLL 6H-11-313) were diluted separately into 20 mM PIPES buffer (pH=7.0), containing 150 mM NaCl and 0.001% Tween 20. Compounds of Formula (I) were pre-dispensed (50 nL) into the assay plate using a Cartesian Hummingbird prior to adding 4MU-B (25 μL of 1.2× solution to a final concentration of 10 μM) followed by enzyme (5 μL of a 6× solution to a final concentration of 5 nM) to initiate the reaction. Final compound concentrations ranged from 17 to 0.0003 μM. The fluorescence change due to 4MU-B cleavage was monitored with excitation and emission wavelengths of 335 and 440 nm, respectively, and a bandwidth of 10 nm (Safire^2, Tecan) at 37° C. for 5 min.
The IC50 values for the following compounds were determined using Microsoft Office Excel from a fit of the equation to the concentration-response plot of the fractional activity as a function of inhibitor concentration.

Test [3] concerns MGL (rat brain homogenate). Nature of the test: 2-AG accumulation assay in rat brain homogenate. The settings on record: percent of vehicle 2-AG accumulation; for Rat Brain 2AG % VehCntrl (%) @1 μM: compound 1 μM. The procedure, abridged: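 Rat brain homogenate was incubated with compound for 15 min at 37° C., after which CaCl2 was added to a final concentration of 10 mM and incubation continued for 15 min at 37° C. in 5 mL total. Reactions were stopped with 6 mL of 2:1 chloroform/methanol, and 2-AG accumulated in the organic phase was quantified by HPLC/MS.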

The structures appear in SMILES notation. Numbering of substitutions follows the chain as printed.

`O=C(c1ccc(-c2cccc(C(F)(F)F)c2)cc1)N1CC(NC2CN(C(=O)c3ccccc3)CC2F)C1` (stereo not drawn) [Cpd 59, (3-((1-Benzoyl-4-fluoropyrrolidin-3-yl)amino)azetidin-1-yl)(3′-(trifluoromethyl)-[1,1′-biphenyl]-4-yl)methanone]: the figures for the half-maximal inhibitory concentration (IC50) in test [1] and in test [2] were 41.4 nM and less than 5 nM, respectively. Besides, the “Rat Brain 2AG % VehCntrl (%) @1 μM” value in test [3] is 389%.
Turning to `CCN(C1CN(C(=O)c2ccc(-c3cccc(C(F)(F)F)c3)cc2)C1)[C@H]1CCN(C(=O)c2ccccc2)C1` [Cpd 53, (3S)-N-Ethyl-1-(phenylcarbonyl)-N-(1-{[3′-(trifluoromethyl)biphenyl-4-yl]carbonyl}azetidin-3-yl)pyrrolidin-3-amine], the figures for the IC50 in test [1] and in test [2] were 286 nM and 10 nM, respectively. The “Rat Brain 2AG % VehCntrl (%) @1 μM” value in test [3] came out at 164%.
For `O=C(c1ccccc1)N1CC[C@H](NC2CN(C(=O)c3cc4cc(OC(F)(F)F)ccc4s3)C2)C1` [Cpd 18, (3S)-1-(Phenylcarbonyl)-N-(1-{[5-(trifluoromethoxy)-1-benzothiophen-2-yl]carbonyl}azetidin-3-yl)pyrrolidin-3-amine], the IC50 is 17.6 nM in test [1] and 16.8 nM in test [2]. In test [3], the “Rat Brain 2AG % VehCntrl (%) @1 μM” value came out at 229%.
The like results for `O=C(c1ccccc1)N1CC[C@H](NC2CN(C(=O)c3sc4cc(-c5ccccc5)ccc4c3Cl)C2)C1` [Cpd 31, (3S)-N-{1-[(3-Chloro-6-phenyl-1-benzothiophen-2-yl)carbonyl]azetidin-3-yl}-1-(phenylcarbonyl)pyrrolidin-3-amine] were, in that order, less than 5 nM, 5 nM and 323%.
On to `O=C(c1ccc2c(-c3ccccc3)c[nH]c2c1)N1CC(N[C@H]2CCN(C(=O)c3ccccc3)C2)C1` [Cpd 57, (3S)-1-(Phenylcarbonyl)-N-{1-[(3-phenyl-1H-indol-6-yl)carbonyl]azetidin-3-yl}pyrrolidin-3-amine], for which the results for the IC50 in test [1] and in test [2] were 179 nM and 44.3 nM, respectively. In test [3], the “Rat Brain 2AG % VehCntrl (%) @1 μM” value worked out at 154%.
For the molecule `O=C(c1ccccc1)N1CC[C@H](NC2CN(C(=O)c3cc4ccc(-c5cccc(C(F)(F)F)c5)cc4s3)C2)C1` [Cpd 44, (3S)-1-(Phenylcarbonyl)-N-[1-({6-[3-(trifluoromethyl)phenyl]-1-benzothiophen-2-yl}carbonyl)azetidin-3-yl]pyrrolidin-3-amine], the concentration for half-maximal inhibition (IC50) came out at 9 nM in test [1] and 31.7 nM in test [2]. In test [3], the “Rat Brain 2AG % VehCntrl (%) @1 μM” value is on record as 839%.
With `CN(C1CN(C(=O)c2ccc(-c3cccc(C(F)(F)F)c3)cc2)C1)[C@H]1CCN(C(=O)c2ccccc2)C1` [Cpd 15, (3S)-N-Methyl-1-(phenylcarbonyl)-N-(1-{[3′-(trifluoromethyl)biphenyl-4-yl]carbonyl}azetidin-3-yl)pyrrolidin-3-amine], the half-inhibitory concentration (IC50) in test [1] amounted to 26.5 nM; in test [2], 11.7 nM. For the same molecule, the “Rat Brain 2AG % VehCntrl (%) @1 μM” value in test [3] is 649%.
In the case of `O=C(c1ccc(-c2cccc(Cl)c2)cc1)N1CC(N[C@H]2CCN(C(=O)c3ccccc3)C2)C1` [Cpd 29, (3S)-N-{1-[(3′-Chlorobiphenyl-4-yl)carbonyl]azetidin-3-yl}-1-(phenylcarbonyl)pyrrolidin-3-amine], the IC50 in test [1] stood at 9.8 nM; in test [2] it was 11 nM. In addition, in test [3], the “Rat Brain 2AG % VehCntrl (%) @1 μM” value is recorded as 163%.
For `O=C(c1ccc2c(-c3cccc(C(F)(F)F)c3)cccc2c1)N1CC(N[C@H]2CCN(C(=O)c3ccccc3)C2)C1` [Cpd 25, (3S)-1-(Phenylcarbonyl)-N-[1-({5-[3-(trifluoromethyl)phenyl]naphthalen-2-yl}carbonyl)azetidin-3-yl]pyrrolidin-3-amine] the same measures were less than 5 nM, 7 nM and 823%.
For `O=C(c1ccccc1)N1CC[C@H](NC2CN(C(=O)c3sc4cc(-c5cccc(C(F)(F)F)c5)ccc4c3Cl)C2)C1` [Cpd 32, (3S)-N-[1-({3-Chloro-6-[3-(trifluoromethyl)phenyl]-1-benzothiophen-2-yl}carbonyl)azetidin-3-yl]-1-(phenylcarbonyl)pyrrolidin-3-amine], the concentration for half-maximal inhibition (IC50) in test [1] and in test [2] was less than 5 nM each time. Further, the “Rat Brain 2AG % VehCntrl (%) @1 μM” value in test [3] was 524%.
Take `O=C(c1ccc(-c2ccc(Cl)c(Cl)c2)cc1)N1CC(N[C@H]2CCN(C(=O)c3ccccc3)C2)C1` [Cpd 30, (3S)-N-{1-[(3′,4′-Dichlorobiphenyl-4-yl)carbonyl]azetidin-3-yl}-1-(phenylcarbonyl)pyrrolidin-3-amine]: the concentration for half-maximal inhibition (IC50) in test [1] is 7 nM; in test [2], 8.8 nM. The “Rat Brain 2AG % VehCntrl (%) @1 μM” value in test [3] is given as 155%.
`Cn1cc(-c2ccccc2)c2ccc(C(=O)N3CC(N[C@H]4CCN(C(=O)c5ccccc5)C4)C3)cc21` [Cpd 64, (3S)-N-{1-[(1-Methyl-3-phenyl-1H-indol-6-yl)carbonyl]azetidin-3-yl}-1-(phenylcarbonyl)pyrrolidin-3-amine]: the half-maximal inhibitory concentration (IC50) in test [1] stood at 70.9 nM; in test [2], 39.5 nM. For the same molecule, the “Rat Brain 2AG % VehCntrl (%) @1 μM” value in test [3] was 182%.
The like results for `O=C(c1ccccc1)N1CC[C@H](NC2CN(C(=O)c3sc4cc(F)ccc4c3Cl)C2)C1` [Cpd 56, (3S)-N-{1-[(3-Chloro-6-fluoro-1-benzothiophen-2-yl)carbonyl]azetidin-3-yl}-1-(phenylcarbonyl)pyrrolidin-3-amine] were, in that order, 68.4 nM, less than 5 nM and 222%.
For `O=C(c1ccccc1)N1CC[C@H](NC2CN(C(=O)c3sc4ccccc4c3Br)C2)C1` [Cpd 55, (3S)-N-{1-[(3-Bromo-1-benzothiophen-2-yl)carbonyl]azetidin-3-yl}-1-(phenylcarbonyl)pyrrolidin-3-amine], the half-maximal inhibitory concentration (IC50) in test [1] is 20.2 nM; in test [2] it was less than 5 nM. Besides, the “Rat Brain 2AG % VehCntrl (%) @1 μM” value in test [3] worked out at 247%.
`O=C(c1ccccc1)N1CC[C@H](NC2CN(C(=O)c3sc4cc(-c5ccc(C(F)(F)F)cc5)ccc4c3Cl)C2)C1` [Cpd 33, (3S)-N-[1-({3-Chloro-6-[4-(trifluoromethyl)phenyl]-1-benzothiophen-2-yl}carbonyl)azetidin-3-yl]-1-(phenylcarbonyl)pyrrolidin-3-amine]: the IC50 in test [1] and in test [2] was less than 5 nM throughout. Further, the “Rat Brain 2AG % VehCntrl (%) @1 μM” value in test [3] worked out at 499%.
Regarding `O=C(c1ccc2c(-c3ccccc3C(F)(F)F)cccc2c1)N1CC(N[C@H]2CCN(C(=O)c3ccccc3)C2)C1` [Cpd 24, (3S)-1-(Phenylcarbonyl)-N-[1-({5-[2-(trifluoromethyl)phenyl]naphthalen-2-yl}carbonyl)azetidin-3-yl]pyrrolidin-3-amine], the IC50 in test [2] was determined as 8.5 nM. In test [3], the “Rat Brain 2AG % VehCntrl (%) @1 μM” value was 706%.
Turning to `O=C(c1ccc(Cc2ccccc2)cc1)N1CC(N[C@H]2CCN(C(=O)c3ccsc3)C2)C1` [Cpd 5, (3S)-N-{1-[(4-Benzylphenyl)carbonyl]azetidin-3-yl}-1-(thiophen-3-ylcarbonyl)pyrrolidin-3-amine], the IC50 in test [2] was less than 5 nM. Moreover, the “Rat Brain 2AG % VehCntrl (%) @10 μM” value in test [3] (compound 10 μM) came out at 962%.
Turning to `O=C(c1ccc(C(F)(F)c2ccccc2)cc1)N1CC(N[C@H]2CCN(C(=O)c3ccccc3)C2)C1` [Cpd 73, (3S)-N-[1-({4-[Difluoro(phenyl)methyl]phenyl}carbonyl)azetidin-3-yl]-1-(phenylcarbonyl)pyrrolidin-3-amine], the IC50 in test [2] came to 15.8 nM. Moreover, in test [3], the “Rat Brain 2AG % VehCntrl (%) @1 μM” value is 441%.

Broadly, the IC50 is the concentration that gives 50% inhibition.
